Source: patent US20230002357A1, “7-PYRIMIDINE-2-YL-OXY-INDAZOLE DERIVATIVES AND THEIR USE AS HERBICIDES” (SYNGENTA CROP PROTECTION AG, priority 2019, published 2023)

Assays:
Assay type in all cases: in vivo
Details in all cases: 250 g/ha, evaluated after 13 days
[1] = tested on: Amaranthus retoflexus (AMARE); assay: Post-emergence Test, glasshouse, AMARE
Summary of the method: (§1)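 Pots were sprayed 1 day after sowing (pre-emergence) or after 8 days' growth (post-emergence) at 250 g/ha, formulated in acetone/water 50:50 with 0.5% Tween 20. Glasshouse conditions were 24/16 °C, 14 h light, 65% humidity. Damage was scored after 13 days on a 1–5 scale (5 = 81–100%).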

[2] = tested on: ABUTH; assay: Post-emergence Test, glasshouse, ABUTH
Summary of the method: as §1

[3] = tested on: Setaria faberi (SETFA); assay: Post-emergence Test, glasshouse, SETFA
Summary of the method: as §1

[4] = tested on: Echinochloa crus-galli (ECHCG); assay: Post-emergence Test, glasshouse, ECHCG
Summary of the method: as §1

[5] = tested on: IPOHE; assay: Post-emergence Test, glasshouse, IPOHE
Summary of the method: as §1

[6] = tested on: Amaranthus retoflexus (AMARE); assay: Pre-emergence Test, glasshouse, AMARE
Summary of the method: as §1

[7] = tested on: ABUTH; assay: Pre-emergence Test, glasshouse, ABUTH
Summary of the method: as §1

[8] = tested on: Setaria faberi (SETFA); assay: Pre-emergence Test, glasshouse, SETFA
Summary of the method: as §1

[9] = tested on: Echinochloa crus-galli (ECHCG); assay: Pre-emergence Test, glasshouse, ECHCG
Summary of the method: as §1

[10] = tested on: IPOHE; assay: Pre-emergence Test, glasshouse, IPOHE
Summary of the method: as §1

| SMILES | percentage damage caused to the plant, five-point scale, AMARE [1] | percentage damage caused to the plant, five-point scale, ABUTH [2] | percentage damage caused to the plant, five-point scale, SETFA [3] | percentage damage caused to the plant, five-point scale, ECHCG [4] | percentage damage caused to the plant, five-point scale, IPOHE [5] | percentage damage caused to the plant, five-point scale, AMARE [6] | percentage damage caused to the plant, five-point scale, ABUTH [7] | percentage damage caused to the plant, five-point scale, SETFA [8] | percentage damage caused to the plant, five-point scale, ECHCG [9] | percentage damage caused to the plant, five-point scale, IPOHE [10] |
| --- | --- | --- | --- | --- | --- | --- | --- | --- | --- | --- |
| Fc1cnc(Oc2cccc3c(Cl)nn(CCCC(F)(F)F)c23)nc1 [Compound 1.047] | 5 (5=81-100%) | 5 (5=81-100%) | 4 (4=61-80%) | 5 (5=81-100%) | 5 (5=81-100%) | 5 (5=81-100%) | 5 (5=81-100%) | 5 (5=81-100%) | 5 (5=81-100%) | 3 (3=41-60%) |
| COc1cnc(Oc2cccc3c(Cl)nn(CCCC(F)(F)F)c23)nc1 [Compound 1.048] | 5 (5=81-100%) | 4 (4=61-80%) | 3 (3=41-60%) | 3 (3=41-60%) | 4 (4=61-80%) | 4 (4=61-80%) | 2 (2=21-40%) | 5 (5=81-100%) | 4 (4=61-80%) | 1 (1=0-20%) |
| Cc1cnc(Oc2cccc3c(Cl)nn(CCCC(F)(F)F)c23)nc1 [Compound 1.049] | 4 (4=61-80%) | 5 (5=81-100%) | 4 (4=61-80%) | 5 (5=81-100%) | 3 (3=41-60%) | 5 (5=81-100%) | 3 (3=41-60%) | 5 (5=81-100%) | 5 (5=81-100%) | 1 (1=0-20%) |
| FC(F)(F)CCCn1nnc2cc(Cl)cc(Oc3ncc(Cl)cn3)c21 [Compound 1.050] | 5 (5=81-100%) | 2 (2=21-40%) | 1 (1=0-20%) | 1 (1=0-20%) | 3 (3=41-60%) | 1 (1=0-20%) | 1 (1=0-20%) | 1 (1=0-20%) | 1 (1=0-20%) | 1 (1=0-20%) |
| FC(F)OCCn1nc(Cl)c2cccc(Oc3ncc(Cl)cn3)c21 [Compound 1.051] | 5 (5=81-100%) | 4 (4=61-80%) | 4 (4=61-80%) | 4 (4=61-80%) | 3 (3=41-60%) | 5 (5=81-100%) | 3 (3=41-60%) | 5 (5=81-100%) | 4 (4=61-80%) | 2 (2=21-40%) |
| FC(F)(F)OCCn1nc(Cl)c2cccc(Oc3ncc(Cl)cn3)c21 [Compound 1.052] | 5 (5=81-100%) | 5 (5=81-100%) | 3 (3=41-60%) | 4 (4=61-80%) | 3 (3=41-60%) | 5 (5=81-100%) | 3 (3=41-60%) | 5 (5=81-100%) | 4 (4=61-80%) | 1 (1=0-20%) |
| C=CCCn1nc(Cl)c2cccc(Oc3ncc(Cl)cn3)c21 [Compound 1.054] | 4 (4=61-80%) | 4 (4=61-80%) | 2 (2=21-40%) | 3 (3=41-60%) | 2 (2=21-40%) | 4 (4=61-80%) | 1 (1=0-20%) | 5 (5=81-100%) | 4 (4=61-80%) | 1 (1=0-20%) |
| CCCCCn1nc(Cl)c2cccc(Oc3ncc(Cl)cn3)c21 [Compound 1.055] | 4 (4=61-80%) | 3 (3=41-60%) | 3 (3=41-60%) | 3 (3=41-60%) | 2 (2=21-40%) | 4 (4=61-80%) | 1 (1=0-20%) | 4 (4=61-80%) | 4 (4=61-80%) | 1 (1=0-20%) |
| CC(C)CCn1nc(Cl)c2cccc(Oc3ncc(Cl)cn3)c21 [Compound 1.056] | 4 (4=61-80%) | 3 (3=41-60%) | 2 (2=21-40%) | 2 (2=21-40%) | 3 (3=41-60%) | 4 (4=61-80%) | 1 (1=0-20%) | 4 (4=61-80%) | 3 (3=41-60%) | 1 (1=0-20%) |
| CC(C)Cn1nc(Cl)c2cccc(Oc3ncc(Cl)cn3)c21 [Compound 1.057] | 3 (3=41-60%) | 2 (2=21-40%) | 1 (1=0-20%) | 1 (1=0-20%) | 1 (1=0-20%) | 2 (2=21-40%) | 2 (2=21-40%) | 4 (4=61-80%) | 2 (2=21-40%) | 1 (1=0-20%) |
| CCCCCCn1nc(Cl)c2cccc(Oc3ncc(Cl)cn3)c21 [Compound 1.058] | 4 (4=61-80%) | 3 (3=41-60%) | 2 (2=21-40%) | 3 (3=41-60%) | 2 (2=21-40%) | 2 (2=21-40%) | 2 (2=21-40%) | 3 (3=41-60%) | 3 (3=41-60%) | 1 (1=0-20%) |
